The source of these data is patent US8946438B2, “Benzamides, production thereof, and use thereof as medicaments” (Boehringer Ingelheim International GmbH, priority 2008, dated 2015).

The assay concerns the target p38 MAP-kinase (Homo sapiens, UniProt Q16539). Nature of the assay: Enzymatic assay: inhibition of p38 MAP-kinase (phosphorylation of GST-tagged ATF2, chemoluminescence bead readout). It counts as biochemical. The settings on record: inhibitor 1 μM; activated p38 MAP-kinase 1 nM; 4 h preincubation; ATP 100 μM; ATF2 10 nM; read-out: % inhibitory effect at 1 μM. In short, it runs like this: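 Activated human p38 MAP-kinase (1 nM) preincubated 4 h at ambient temperature with compound at 1 μM in HEPES pH 7, MgCl2, DTT, Tween20. Then reacted 1 h with GST-ATF2 (10 nM) and ATP (100 μM). Phospho-ATF2 read by bead chemoluminescence at 520-620 nm, given as % inhibition at 1 μM versus kinase-free background.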

Sequence of p38 MAP-kinase (Q16539 whole entry): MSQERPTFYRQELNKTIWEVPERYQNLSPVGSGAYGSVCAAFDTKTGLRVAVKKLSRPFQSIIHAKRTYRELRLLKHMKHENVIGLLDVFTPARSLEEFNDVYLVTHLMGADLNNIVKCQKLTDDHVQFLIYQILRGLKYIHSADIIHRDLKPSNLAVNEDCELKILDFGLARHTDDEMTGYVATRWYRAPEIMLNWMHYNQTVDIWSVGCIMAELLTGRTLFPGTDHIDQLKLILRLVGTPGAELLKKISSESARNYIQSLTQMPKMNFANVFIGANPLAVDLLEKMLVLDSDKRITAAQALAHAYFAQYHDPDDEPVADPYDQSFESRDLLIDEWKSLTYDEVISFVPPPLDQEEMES

Take `COc1c(NC(=O)c2ccc(C)c(Oc3ccnc(CNC4CCN(C)CC4)n3)c2)cc(C(C)(C)C)cc1NS(C)(=O)=O` [8(17), N-(5-tert-butyl-3-methanesulphonylamino-2-methoxy-phenyl)-4-methyl-3-{2-[(1-methyl-piperidin-4-ylamino)-methyl]-pyrimidin-4-yloxy}-benzamide]: the inhibition at 1 µM was found to be 96.7%.
In the case of `COc1c(NC(=O)c2ccc(C)c(Oc3ccnc(CNC4CCCN(C)C4)n3)c2)cc(C(C)(C)C)cc1NS(C)(=O)=O` (centres unmarked) [8(18), N-(5-tert-butyl-3-methanesulphonylamino-2-methoxy-phenyl)-4-methyl-3-{2-[(1-methyl-piperidin-3-ylamino)-methyl]-pyrimidin-4-yloxy}-benzamide], the inhibition at 1 µM amounted to 98.6%.
For `COc1c(NC(=O)c2ccc(C)c(Oc3ccnc(CN(C)C4CCN(C)C4)n3)c2)cc(C(C)(C)C)cc1NS(C)(=O)=O` (centres unmarked) [8(19), N-(5-tert-butyl-3-methanesulphonylamino-2-methoxy-phenyl)-4-methyl-3-(2-{[methyl-(1-methyl-pyrrolidin-3-yl)-amino]-methyl}-pyrimidin-4-yloxy)-benzamide], the inhibition at 1 µM stood at 97%.
Consider `COc1c(NC(=O)c2ccc(C)c(Oc3ccnc(CN4CCCN(C)CC4)c3)c2)cc(C(C)(C)C)cc1NS(C)(=O)=O` [8(20), N-(5-tert-butyl-3-methanesulphonylamino-2-methoxy-phenyl)-4-methyl-3-[2-(4-methyl-homopiperazin-1-ylmethyl)-pyridin-4-yloxy]-benzamide], for which the inhibition at 1 µM came out at 99.4%.
For `COc1c(NC(=O)c2ccc(C)c(Oc3ccnc(CN4CC[C@H](N(C)C)C4)n3)c2)cc(C(C)(C)C)cc1NS(C)(=O)=O` [8(21), (S)-N-(5-tert-butyl-3-methanesulphonylamino-2-methoxy-phenyl)-3-[2-(3-dimethylamino-pyrrolidin-1-ylmethyl)-pyrimidin-4-yloxy]-4-methyl-benzamide], the inhibition at 1 µM worked out at 98.5%.
`COc1c(NC(=O)c2ccc(C)c(Oc3ccnc(CN4CC[C@@H](N(C)C)C4)n3)c2)cc(C(C)(C)C)cc1NS(C)(=O)=O` [8(22), (R)-N-(5-tert-butyl-3-methanesulphonylamino-2-methoxy-phenyl)-3-[2-(3-dimethylamino-pyrrolidin-1-ylmethyl)-pyrimidin-4-yloxy]-4-methyl-benzamide]: the inhibition at 1 µM was found to be 98.3%.
For `COc1c(NC(=O)c2ccc(C)c(Oc3ccnc(CNC4CCN(C)C4)n3)c2)cc(C(C)(C)C)cc1NS(C)(=O)=O` (centres unmarked) [8(23), N-(5-tert-butyl-3-methanesulphonylamino-2-methoxy-phenyl)-4-methyl-3-{2-[(1-methyl-pyrrolidin-3-ylamino)-methyl]-pyrimidin-4-yloxy}-benzamide] the value was 97.8%.
Regarding `COc1c(NC(=O)c2ccc(C)c(Oc3ccnc(CN(C)CCN(C)C)n3)c2)cc(C(C)(C)C)cc1NS(C)(=O)=O` [8(24), N-(5-tert-butyl-3-methanesulphonylamino-2-methoxy-phenyl)-3-(2-{[N-(2-dimethylamino-ethyl)-N-methyl-amino]-methyl}-pyrimidin-4-yloxy)-4-methyl-benzamide], the inhibition at 1 µM came out at 92.4%.
Regarding `COc1c(NC(=O)c2ccc(C)c(Oc3ccnc(CNCCN(C)C)n3)c2)cc(C(C)(C)C)cc1NS(C)(=O)=O` [8(25), N-(5-tert-butyl-3-methanesulphonylamino-2-methoxy-phenyl)-3-{2-[(2-dimethylamino-ethylamino)-methyl]-pyrimidin-4-yloxy}-4-methyl-benzamide], the inhibition at 1 µM was determined as 98.6%.
Take `COc1c(NC(=O)c2ccc(C)c(Oc3ccnc(CN(C)CCN(C)C)c3)c2)cc(C(C)(C)C)cc1NS(C)(=O)=O` [8(26), N-(5-tert-butyl-3-methanesulphonylamino-2-methoxy-phenyl)-3-(2-{[(2-dimethylamino-ethyl)-methyl-amino]-methyl}-pyridin-4-yloxy)-4-methyl-benzamide]: the inhibition at 1 µM stood at 97.7%.
As to `COc1c(NC(=O)c2ccc(C)c(Oc3ccnc(CNCCN(C)C)c3)c2)cc(C(C)(C)C)cc1NS(C)(=O)=O` [8(27), N-(5-tert-butyl-3-methanesulphonylamino-2-methoxy-phenyl)-3-{2-[(2-dimethylamino-ethylamino)-methyl]-pyridin-4-yloxy}-4-methyl-benzamide], the inhibition at 1 µM was 98.4%.
As to `COc1c(NC(=O)c2cc(C)cc(Oc3ccnc(CN4CCN(C)CC4)n3)c2)cc(C(C)(C)C)cc1NS(C)(=O)=O` [8(28), N-(5-tert-butyl-3-methanesulphonylamino-2-methoxy-phenyl)-3-methyl-5-[2-(4-methyl-piperazin-1-ylmethyl)-pyrimidin-4-yloxy]-benzamide], the inhibition at 1 µM stood at 81.8%.
With `COc1c(NC(=O)c2ccc(C)c(Oc3cc(CNCCN(C)C)ncn3)c2)cc(C(C)(C)C)cc1NS(C)(=O)=O` [8(29), N-(5-tert-butyl-3-methanesulphonylamino-2-methoxy-phenyl)-3-{6-[(2-dimethylamino-ethylamino)-methyl]-pyrimidin-4-yloxy}-4-methyl-benzamide], the inhibition at 1 µM was 89%.
`COc1c(NC(=O)c2ccc(C)c(Oc3cc(CN(C)CCN(C)C)ncn3)c2)cc(C(C)(C)C)cc1NS(C)(=O)=O` [8(30), N-(5-tert-butyl-3-methanesulphonylamino-2-methoxy-phenyl)-3-(6-{[(2-dimethylamino-ethyl)-methyl-amino]-methyl}-pyrimidin-4-yloxy)-4-methyl-benzamide]: the inhibition at 1 µM turned out to be 91.3%.
Turning to `COc1c(NC(=O)c2ccc(Cl)c(Oc3cc(CNCCN(C)C)ncn3)c2)cc(C(C)(C)C)cc1NS(C)(=O)=O` [8(31), N-(5-tert-butyl-3-methanesulphonylamino-2-methoxy-phenyl)-4-chloro-3-{6-[(2-dimethylamino-ethylamino)-methyl]-pyrimidin-4-yloxy}-benzamide], the inhibition at 1 µM turned out to be 86.5%.
`COc1c(NC(=O)c2ccc(Cl)c(Oc3cc(CN(C)CCN(C)C)ncn3)c2)cc(C(C)(C)C)cc1NS(C)(=O)=O` [8(32), N-(5-tert-butyl-3-methanesulphonylamino-2-methoxy-phenyl)-4-chloro-3-(6-{[(2-dimethylamino-ethyl)-methyl-amino]-methyl}-pyrimidin-4-yloxy)-benzamide]: the inhibition at 1 µM was determined as 92.6%.
For the molecule `COc1c(NC(=O)c2ccc(Cl)c(Oc3ccnc(CN(C)CCN(C)C)c3)c2)cc(C(C)(C)C)cc1NS(C)(=O)=O` [8(33), N-(5-tert-butyl-3-methanesulphonylamino-2-methoxy-phenyl)-4-chloro-3-(2-{[(2-dimethylamino-ethyl)-methyl-amino]-methyl}-pyridin-4-yloxy)-benzamide], the inhibition at 1 µM came to 97.1%.
As for `COc1c(NC(=O)c2ccc(Cl)c(Oc3ccnc(CNCCN(C)C)c3)c2)cc(C(C)(C)C)cc1NS(C)(=O)=O` [8(34), N-(5-tert-butyl-3-methanesulphonylamino-2-methoxy-phenyl)-4-chloro-3-{2-[(2-dimethylamino-ethylamino)-methyl]-pyridin-4-yloxy}-benzamide], the inhibition at 1 µM is 99.3%.
For `COc1c(NC(=O)c2ccc(Cl)c(Oc3ccnc(CN4CCCN(C)CC4)n3)c2)cc(C(C)(C)C)cc1NS(C)(=O)=O` [8(35), N-(5-tert-butyl-3-methanesulphonylamino-2-methoxy-phenyl)-4-chloro-3-[2-(4-methyl-[1,4]diazepan-1-ylmethyl)-pyrimidin-4-yloxy]-benzamide] the value was 98.6%; for `COc1c(NC(=O)c2ccc(Cl)c(Oc3ccnc(CN(C)CCN(C)C)n3)c2)cc(C(C)(C)C)cc1NS(C)(=O)=O` [8(36), N-(5-tert-butyl-3-methanesulphonylamino-2-methoxy-phenyl)-4-chloro-3-(2-{[(2-dimethylamino-ethyl)-methyl-amino]-methyl}-pyrimidin-4-yloxy)-benzamide], 82.6%.
For `COc1c(NC(=O)c2ccc(Cl)c(Oc3ccnc(CNCCN(C)C)n3)c2)cc(C(C)(C)C)cc1NS(C)(=O)=O` [8(37), N-(5-tert-butyl-3-methanesulphonylamino-2-methoxy-phenyl)-4-chloro-3-{2-[(2-dimethylamino-ethylamino)-methyl]-pyrimidin-4-yloxy}-benzamide], the inhibition at 1 µM was 91.3%.
Consider `COc1c(NC(=O)c2ccc(Cl)c(Oc3cc(CN4CCCN(C)CC4)ncn3)c2)cc(C(C)(C)C)cc1NS(C)(=O)=O` [8(38), N-(5-tert-butyl-3-methanesulphonylamino-2-methoxy-phenyl)-4-chloro-3-[6-(4-methyl-[1,4]diazepan-1-ylmethyl)-pyrimidin-4-yloxy]-benzamide], for which the inhibition at 1 µM was determined as 98.8%.
For `COc1c(NC(=O)c2ccc(Cl)c(Oc3ccnc(CN4CCCN(C)CC4)c3)c2)cc(C(C)(C)C)cc1NS(C)(=O)=O` [8(39), N-(5-tert-butyl-3-methanesulphonylamino-2-methoxy-phenyl)-4-chloro-3-[2-(4-methyl-[1,4]diazepan-1-ylmethyl)-pyridin-4-yloxy]-benzamide] the value was 98.9%.
For `COc1c(NC(=O)c2ccc(C)c(Oc3ccnc(CC4CCN(C)CC4)n3)c2)cc(C(C)(C)C)cc1NS(C)(=O)=O` [9(1), N-(5-tert-butyl-3-methanesulphonylamino-2-methoxy-phenyl)-4-methyl-3-[2-(1-methyl-piperidin-4-ylmethyl)-pyrimidin-4-yloxy]-benzamide] the value was 99.9%; for `COc1c(NC(=O)c2ccc(C)c(Oc3ccnc(CC4CCN(C)CC4)c3)c2)cc(C(C)(C)C)cc1NS(C)(=O)=O` [9(2), N-(5-tert-butyl-3-methanesulphonylamino-2-methoxy-phenyl)-4-methyl-3-[2-(1-methyl-piperidin-4-ylmethyl)-pyridin-4-yloxy]-benzamide], 98.5%.
`CCCCS(=O)(=O)Nc1cc(C(C)(C)C)cc(NC(=O)c2ccc(C)c(Oc3ccnc(CC4CCNCC4)c3)c2)c1OC` [11(1), N-[3-(butan-1-sulphonylamino)-5-tert-butyl-2-methoxy-phenyl]-4-methyl-3-(2-piperidin-4-ylmethyl-pyridin-4-yloxy)-benzamide]: the inhibition at 1 µM came to 99.4%.
